Assay results published in patent US7189717B2, “Medicinal compositions promoting bowel movement” (Eisai Co., Ltd., priority 2000, dated 2007).
Read-outs that look alike come from different tables or passages of the source.

Tests used:
SD IGS rats [1] = experiment: Evaluation of defecation-promoting action (Table 10); type: in vivo, rat; settings: 180 minutes, n = 6 cages/group
Protocol: That is, SD IGS rats (6-to 7-weeks-old, from Charles River) were placed in cages (3 animals/cage) and preliminarily allowed food and water ad libitum and raised for 1 week. On the day of the experiment, their weight was measured, a water-absorbing sheet was placed below each cage, and the animals were fasted but allowed water ad libitum throughout the experiment. Thee hours after fasting was initiated, the fecal pellets were recovered from each cage and observed for abnormality before the experiment, and then the compound suspended in 0.5% (w/v) methyl cellulose (MC) was orally administered in a dose of 5 ml/kg. On one hand, 0.5% (w/v) MC only was orally given to the control group. After administration of the compound, the rats were returned to the cage provided with a new water-absorbing sheet, and 180 minutes after the administration, the fecal pellets on the water-absorbing sheet were recovered from each cage, and the external appearance was observed, and the number of fecal pellets was counted. The number of fecal pellets is expressed per each cage.

[2] = system: rat distal colon longitudinal muscles; settings: cited from earlier work; for Relaxation of Carbachol-contracted muscles: agonist added at 0.1 to 30 μM
[3] = system: guinea pig distal colon longitudinal muscles; settings: cited from earlier work; for pA2 value of the antagonistic action on the relaxing action of NECA: electrical stimulation
[4] = system: guinea pig distal colon longitudinal muscles; settings: KCl + tetrodotoxin, cited from earlier work
[5] = system: guinea pig colon longitudinal muscles; settings: 100 nM; cited from earlier work
SD IGS rats [6] = experiment: Defecation-promoting action in rat, number of fecal pellets (Test Example 2); type: in vivo; settings: for The number of fecal pellets/3 rats: Test Example 2
Protocol: (§1) SD IGS rats (6-weeks-old, from Charles River) were placed in cages (3 animals/cage) and preliminarily allowed food and water ad libitum and raised for 1 week. On the day of the experiment, their weight was measured, a water-absorbing sheet was placed below each cage, and the animals were fasted but allowed water ad libitum throughout the experiment. Three hours after fasting was initiated, the fecal pellets were recovered from each cage and observed for abnormality before the experiment, and then the compound suspended or dissolved in 0.5% (W/V) methyl cellulose (MC) was orally administered into each rat in a dose of 5 ml/kg. On one hand, 0.5% (W/V) MC only was orally given to the control group. After administering the compound, the rats were returned to the cage provided with a new water-absorbing sheet of known weight, and 180 minutes after the administration, the fecal pellets on the water-absorbing sheet were recovered from each cage, and the external appearance was observed, and the number of fecal pellets was counted. The number of fecal pellets is expressed per each cage (Table 4). After the fecal pellets were recovered, the water-absorbing sheet was weighed, and the weight determined by subtracting the initial weight of the water-adsorbing sheet from the weight after the experiment was regarded as the volume of urine and expressed as the volume of urine per 100 g of the body weight (Table 4).

[7] = Urine volume in rat (Test Example 2); type: in vivo; settings: rats, oral, Table 4
Protocol: as §1, with “The number of fecal pellets is expressed per each cage (Table 4).” left out

SD IGS rats [8] = experiment: Contribution of inhibition of adenosine A2b receptor to defecation-promoting action (Test Example 3); type: in vivo, rat
Protocol: as §1, with “The number of fecal pellets is expressed per each cage (Table 4).” left out, “4). […]” for “4).”

Nc1nc(N)c(-c2ccncc2)c(-c2cccc(F)c2)n1 [Example 1, 6-(3-Flurophenyl)-5-(4-pyridyl)-2,4-pyrimidine diamine]
The number of fecal pellets/3 rats (SD IGS rats [1]; 3 mg/kg oral): 14.83 ± 1.82 fecal pellets/3 rats | The number of fecal pellets/3 rats (SD IGS rats [1]; 10 mg/kg oral): 23.17 ± 2.94 fecal pellets/3 rats

CCCn1c(=O)c2[nH]c(C3CCCC3)nc2n(CCC)c1=O [DPCPX]
Antagonism of the relaxing action of NECA and CPA ([2]; 1 μM): antagonized | pA2 value of the antagonistic action on the relaxing action of NECA [3]: 8.8 | Antagonistic action on the relaxing action ([4]; 1 nM): did not show an antagonistic action | Antagonistic action on the relaxing action of NECA and CPA ([4]; 10 nM): inhibited the relaxing action of NECA and CPA | pA2 value against CPA [4]: 7.0 | pA2 value against NECA [4]: 6.6

OC[C@H]1O[C@@H](n2cnc3c(NC4CCCC4)ncnc32)[C@H](O)[C@@H]1O [CPA]
Relaxation of Carbachol-contracted muscles [2]: relaxation was observed | Relaxation of muscles contracted by electrical stimulation [3]: relaxation was observed | Relaxing action on contraction stimulated by acetylcholine [5]: did not exhibit a relaxing action

Cn1c(=O)c2[nH]c(-c3ccccc3)nc2n(C)c1=O [Example 8-PT, 8-phenyltheophylline]
pA2 value of the antagonistic action on the relaxing action of NECA [3]: 6.5 | pA2 value upon inhibition of the action of NECA ([4]; 10 μM): 5.7

CCNC(=O)[C@H]1O[C@@H](n2cnc3c(N)ncnc32)[C@H](O)[C@@H]1O [NECA, 5′-N-ethylcarboxyamide adenosine]
Relaxation of Carbachol-contracted muscles [2]: relaxation was observed | Relaxation of muscles contracted by electrical stimulation [3]: relaxation was observed | Relaxing action on contraction stimulated by acetylcholine [5]: did not exhibit a relaxing action

Nc1ncc(-c2ccncc2)c(-c2ccco2)n1 [Compound I, 2-Amino-4-(2-furyl)-5-(4-pyridyl)pyrimidine]
Defecation-promoting action (in words) (SD IGS rats [6]; rats, oral, Table 4): evidently higher defecation-promoting action | Diuretic action (in words) [7]: weaker diuretic action than the A1-selective antagonist KW3902

CCNC(=O)[C@H]1O[C@@H](n2cnc3c(N)nc(NCCc4ccc(CCC(=O)O)cc4)nc32)[C@H](O)[C@@H]1O [CGS21680, 2-p-[2-carboxyethyl]phenetylamino-5′-N-ethylarboxyamide adenosine]
Antagonism of the relaxing action of NECA and CPA ([2]; 10 μM): not antagonized | Relaxation of muscles contracted by electrical stimulation [3]: very weak | Relaxing action ([4]; 1 μM): did not act

CCCn1c(=O)c2[nH]c(C34CC5CC(CC3C5)C4)nc2n(CCC)c1=O [KW3902]
The number of fecal pellets/3 rats (SD IGS rats [6]; 0.3 mg/kg oral, 180 minutes after administration): 10.67 ± 2.08 fecal pellets/3 rats | The number of fecal pellets/3 rats (SD IGS rats [6]; 1 mg/kg oral, 180 minutes): 14.50 ± 1.18 fecal pellets/3 rats | The number of fecal pellets/3 rats (SD IGS rats [6]; 3 mg/kg oral, 180 minutes): 12.83 ± 1.66 fecal pellets/3 rats | Diuretic action (in words) [7]: stronger diuretic action than Compound I | The number of fecal pellets/3 rats (SD IGS rats [8]; KW3902 1 mg/kg together with KW6002 1 mg/kg, 180 minutes): 18.25 ± 1.49 fecal pellets/3 rats | The number of fecal pellets/3 rats (SD IGS rats [8]; KW3902 1 mg/kg without KW6002, 180 minutes): 9.00 ± 1.08 fecal pellets/3 rats
